The text below walks through data of US8614182B2 (Jiangsu Hansoh Pharmaceuticals Co., Ltd., priority 2009, dated 2013).

Non-standard residues stand in square brackets, D forms with d. Residues, ends and D or L forms follow the SMILES beside them. *: point of attachment. εLys(Nα-Palmitoyl) = CCCCCCCCCCCCCCCC(=O)N[C@@H](CCCCN*)C(=O)O; Aib = CC(C)(N)C(=O)O

The conditions of series [1]: cited from earlier work.
Series [2] concerns the target T1, Glucagon-like peptide-1 receptor (GLP1R) (Homo sapiens, UniProt P43220).
T1 construct: expressed in transfected cells; host or cells: HEK293
The experiment in a line: Agonist activity on GLP1R, cAMP response element luciferase reporter gene in HEK293 cells. In kind it is cell-based. The settings on record: HEK293 cells stably transfected with GLP1R and pCRE-Luc, 5 hours incubation; read-out: Maximum reaction rate. An excerpt: GLP1R is a receptor coupled with Gs protein, of which the binding with the agonists will result in an increase of intracellular cAMP concentration. In the present experiment, GLP1R and the luciferase reporter gene plasmid regulated by cAMP response elements are co-transfected into HEK293 cells. When the compound binds to the receptor and activates the receptors, the expression of the luciferase will increase. The activation status of the compound to GLP1R can be learned by testing the activity of the luciferase.
2. The compounds or positive drugs having a certain concentration gradient were added (3 wells per concentration) and incubated at 37° C. for 5 hours. The negative control was solvent DMSO.
3. 50 μl culture medium was taken from each well, and 50 μl of the luciferase substrate were added and vortexed for 10 minutes.
4. 80 μl reaction solution was taken and transferred to a white 96 well plate, then detected on the Invision microplate reader (enzyme-labelling measuring instrument).
For orientation: A reporter such as luciferase makes a cellular process visible.

Series [3] has as its system db/db mice with type 2 diabetes. The experiment in a line: Random blood glucose of db/db mice after single subcutaneous injection. In kind it is in vivo. The settings on record: for random blood glucose: n = 8; for decrease rate of random blood glucose: versus control group; for random blood glucose level (words, test conclusions): dose of 3 μg/kg (so in the source). Here is the method:
db/db mice with type 2 diabetes were divided into six groups based on a random blood glucose and body weight (8 per group). […] The random blood glucose of the mice is determined at differete time after administration.
Preparation method: 1 bottle of the compound (2 mg/bottle) was dissolved with double-distilled water to prepare a colorless and transparent solution of which the concentration is 2 mg/mL. […] “ACCU-CHEK® Advantage” blood glucose meter form Roche was used to determine the blood glucose.
Route and volume of administration: Single subcutaneous injection dose, dose volume was 5 mL/kg. […]
The random blood glucoses of db/db mice were measured.
Each group has 8 mice, half male and half female. The animals of each group were administered with the test compounds or solvent control respectively through single subcutaneous injection.

The mark [4] stands for this setting: 3 μg/kg single s.c., 1 h after administration, X ± s.
[5] abbreviates: 3 μg/kg single s.c., 1 h after administration.
Setting [6] is: 3 μg/kg single s.c., 2 h after administration, X ± s.
[7] abbreviates: 3 μg/kg single s.c., 2 h after administration.
Where [8] appears, read: 3 μg/kg single s.c., 4 h after administration, X ± s.
Setting [9] is: 3 μg/kg single s.c., 4 h after administration.
Setting [10] is: 3 μg/kg single s.c., 8 h after administration, X ± s.
Where [11] appears, read: 3 μg/kg single s.c., 8 h after administration.
The mark [12] stands for this setting: 3 μg/kg single s.c., after one hour, P<0.05.
The mark [13] stands for this setting: 3 μg/kg single s.c., before administration, X ± s.
The mark [14] stands for this setting: 10 μg/kg single s.c., 1 h after administration.
Setting [15] is: 10 μg/kg single s.c., 1 h after administration, ± s.
Setting [16] is: 10 μg/kg single s.c., 2 h after administration.
[17] abbreviates: 10 μg/kg single s.c., 2 h after administration, ± s.
Where [18] appears, read: 10 μg/kg single s.c., 4 h after administration.
[19] abbreviates: 10 μg/kg single s.c., 4 h after administration, ± s.
The mark [20] stands for this setting: 10 μg/kg single s.c., 8 h after administration.
Where [21] appears, read: 10 μg/kg single s.c., 8 h after administration, ± s.
[22] abbreviates: 10 μg/kg single s.c., 24 h after administration.
The mark [23] stands for this setting: 10 μg/kg single s.c., 24 h after administration, ± s.
[24] abbreviates: 10 μg/kg single s.c., after 24 hours.
[25] abbreviates: 10 μg/kg single s.c., before administration, ± s.

T1 sequence (P43220 24-463, species assumed): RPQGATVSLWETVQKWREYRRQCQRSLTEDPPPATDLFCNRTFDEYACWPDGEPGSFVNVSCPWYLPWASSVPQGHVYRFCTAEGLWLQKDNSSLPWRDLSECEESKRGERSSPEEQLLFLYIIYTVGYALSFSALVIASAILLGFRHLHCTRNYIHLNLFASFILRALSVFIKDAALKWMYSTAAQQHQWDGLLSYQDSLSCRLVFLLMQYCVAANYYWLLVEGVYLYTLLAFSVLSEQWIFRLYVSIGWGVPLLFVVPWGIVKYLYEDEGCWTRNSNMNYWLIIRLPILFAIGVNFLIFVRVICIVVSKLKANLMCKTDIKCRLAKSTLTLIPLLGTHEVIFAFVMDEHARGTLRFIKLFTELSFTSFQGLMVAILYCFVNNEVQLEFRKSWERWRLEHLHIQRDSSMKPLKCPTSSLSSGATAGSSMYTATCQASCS

As for glucagon-like peptide-1 [GLP-1], the in vivo half-life result in series [1] is reported as “about 2 minutes”.

In the case of `CCCCCCCCCCCCCCCC(=O)N[C@@H](CCCCNC(=O)[C@H](CO)NC(=O)[C@@H]1CCCN1C(=O)[C@@H]1CCCN1C(=O)[C@@H]1CCCN1C(=O)[C@H](C)NC(=O)CNC(=O)[C@H](CO)NC(=O)[C@H](CO)NC(=O)[C@@H]1CCCN1C(=O)CNC(=O)CNC(=O)[C@H](CCCNC(=N)N)NC(=O)[C@@H](NC(=O)[C@H](CC(C)C)NC(=O)[C@H](Cc1c[nH]c2ccccc12)NC(=O)[C@H](C)NC(=O)[C@@H](NC(=O)[C@H](Cc1ccccc1)NC(=O)[C@H](CCC(=O)O)NC(=O)[C@H](CCCCN)NC(=O)[C@H](C)NC(=O)[C@H](C)NC(=O)[C@H](CCC(=O)O)NC(=O)[C@H](CCC(=O)O)NC(=O)[C@H](CCC(=O)O)NC(=O)[C@H](CC(C)C)NC(=O)[C@H](Cc1ccc(O)cc1)NC(=O)[C@H](CO)NC(=O)[C@H](CO)NC(=O)[C@@H](NC(=O)[C@H](CC(=O)O)NC(=O)[C@H](CO)NC(=O)[C@@H](NC(=O)[C@H](Cc1ccccc1)NC(=O)[C@@H](NC(=O)CNC(=O)[C@H](CCC(=O)O)NC(=O)C(C)(C)NC(=O)[C@@H](N)Cc1c[nH]cn1)[C@@H](C)O)[C@@H](C)O)C(C)C)[C@@H](C)CC)C(C)C)C(=O)O` [HS-20004] (H-H[Aib]EGTFTSDVSSYLEEEAAKEFIAWLVRGGPSSGAPPPS-{εLys(Nα-Palmitoyl)}; N-terminus and C-terminus assumed), the Emax in series [2] amounted to 90.8%. Besides, the random blood glucose was 20.11 ± 1.28 mmol/L in series [3] (setting [4]); 18.81 ± 1.50 mmol/L in series [3] (setting [6]); 17.98 ± 1.38 mmol/L in series [3] (setting [8]); 23.30 ± 1.47 mmol/L in series [3] (setting [10]); 25.11 ± 1.63 mmol/L in series [3] (setting [13]); 19.63 ± 1.81 mmol/L in series [3] (setting [15]). Further, the random blood glucose in series [3] (setting [17]) is 21.86 ± 1.66 mmol/L; in series [3] (setting [19]), 21.44 ± 1.68 mmol/L; in series [3] (setting [21]) it was 23.80 ± 1.46 mmol/L; in series [3] (setting [23]) it was 25.64 ± 1.85 mmol/L; in series [3] (setting [25]), 23.18 ± 1.65 mmol/L. Further, the “decrease rate of random blood glucose” value was determined as 15.00% in series [3] (setting [5]); 15.00% in series [3] (3 μg/kg single s.c., 1 h after administration, listed as 20004); 16.85% in series [3] (setting [7]); 18.30% in series [3] (setting [9]); 8.22% in series [3] (setting [11]); 36.20% in series [3] (setting [14]). The “decrease rate of random blood glucose” value in series [3] (setting [16]) amounted to 27.82%; in series [3] (setting [18]), 28.30%; in series [3] (setting [20]), 23.32%; in series [3] (setting [22]), 11.52%. The “random blood glucose values compared with those of the control group” value is “kept a lower level and had significant difference” in series [3] (3 μg/kg single s.c., after 2 h and 4 h, P<0.05); “no significant difference” in series [3] (3 μg/kg single s.c., after 8 hours); “decreased significantly” in series [3] (setting [12]); “still kept at a lower level” in series [3] (10 μg/kg single s.c., after 4 h and 8 h); “not significantly different” in series [3] (setting [24]); “decreased immediately and significantly” in series [3] (10 μg/kg single s.c., time not specified). In series [3] (single s.c.), the “effect on reducing random blood glucose compared within the series” value was “much better effect”. The “random blood glucose level (words, test conclusions)” value in series [3] (single s.c.) is recorded as “decreased obviously”.

Take `CCCCCCCCCCCCCCCC(=O)N[C@@H](CCCCNC(=O)[C@H](CO)NC(=O)[C@@H]1CCCN1C(=O)[C@@H]1CCCN1C(=O)[C@@H]1CCCN1C(=O)[C@H](C)NC(=O)CNC(=O)[C@H](CO)NC(=O)[C@H](CO)NC(=O)[C@@H]1CCCN1C(=O)CNC(=O)CNC(=O)[C@H](CCCNC(=N)N)NC(=O)[C@@H](NC(=O)[C@H](CC(C)C)NC(=O)[C@H](Cc1c[nH]c2ccccc12)NC(=O)[C@H](C)NC(=O)[C@@H](NC(=O)[C@H](Cc1ccccc1)NC(=O)[C@H](CCC(=O)O)NC(=O)[C@H](CCCCN)NC(=O)[C@H](C)NC(=O)[C@H](C)NC(=O)[C@H](CCC(=O)O)NC(=O)[C@H](CCC(=O)O)NC(=O)[C@H](CCC(=O)O)NC(=O)[C@H](CC(C)C)NC(=O)[C@H](Cc1ccc(O)cc1)NC(=O)[C@H](CO)NC(=O)[C@H](CO)NC(=O)[C@@H](NC(=O)[C@H](CC(=O)O)NC(=O)[C@H](CO)NC(=O)[C@@H](NC(=O)[C@H](Cc1ccccc1)NC(=O)[C@@H](NC(=O)CNC(=O)[C@H](CCC(=O)O)NC(=O)[C@@H](C)NC(=O)[C@@H](N)Cc1c[nH]cn1)[C@@H](C)O)[C@@H](C)O)C(C)C)[C@@H](C)CC)C(C)C)C(=O)O` [HS-20003] (H-H[dA]EGTFTSDVSSYLEEEAAKEFIAWLVRGGPSSGAPPPS-{εLys(Nα-Palmitoyl)}; N-terminus and C-terminus assumed): the Emax in series [2] stood at 87.9%. Besides, the random blood glucose is listed as 19.56 ± 1.19 mmol/L in series [3] (setting [4]); 19.44 ± 1.48 mmol/L in series [3] (setting [6]); 19.63 ± 1.12 mmol/L in series [3] (setting [8]); 22.59 ± 1.05 mmol/L in series [3] (setting [10]); 25.16 ± 1.49 mmol/L in series [3] (setting [13]); 20.74 ± 0.98 mmol/L in series [3] (setting [15]). The random blood glucose in series [3] (setting [17]) was found to be 21.10 ± 0.80 mmol/L; in series [3] (setting [19]), 19.54 ± 1.80 mmol/L; in series [3] (setting [21]) it was 22.14 ± 2.16 mmol/L; in series [3] (setting [23]) it was 24.45 ± 1.55 mmol/L; in series [3] (setting [25]), 23.20 ± 1.36 mmol/L. Also, the “decrease rate of random blood glucose” value came out at 17.33% in series [3] (setting [5]); 14.09% in series [3] (setting [7]); 10.80% in series [3] (setting [9]); 11.03% in series [3] (setting [11]); 23.62% in series [3] (setting [14]); 25.93% in series [3] (setting [16]). Further, the “decrease rate of random blood glucose” value in series [3] (setting [18]) worked out at 36.49%; in series [3] (setting [20]) it was 26.12%; in series [3] (setting [22]), 11.89%. Besides, the “random blood glucose values compared with those of the control group” value in series [3] (3 μg/kg single s.c., after 2 h, 4 h and 8 h) is recorded as “no significant difference”; in series [3] (setting [12]) it was “decreased significantly”; in series [3] (10 μg/kg single s.c., after 2 h, 4 h and 8 h) it was “still keep at a lower level”; in series [3] (setting [24]), “no significant difference”; in series [3] (10 μg/kg single s.c., after one hour, P<0.01), “decreased significantly”. Besides, the “random blood glucose level (words, test conclusions)” value in series [3] (single s.c.) is listed as “decreased obviously”.
